This note sets out measurements from patent publication US9340590B2 (priority 2011, dated 2016).

Test in all cases: cell-based
The target in one assay is hNav1.7 (Homo sapiens, UniProt Q15858). Type of assay: cell-based. Conditions: IonWorks Quattro, use-dependent block, hNav1.7; read-out: IWQ Use Nav1.7.
In another assay the target is hNav1.3 (Homo sapiens, UniProt Q9NY46). Conditions: IonWorks Quattro, use-dependent block, hNav1.3; read-out: IWQ Use Nav1.3.
The target in another assay is hNav1.5 (Homo sapiens, UniProt Q14524). The settings on record: IonWorks Quattro, use-dependent block, hNav1.5; read-out: IWQ Use Nav1.5.

Structures are written as SMILES. Positions of bridges follow the written chain, without caps; N, C: chain ends. Non-standard residues stand in square brackets, D forms with d. Residues, ends and D or L forms follow the SMILES beside them. Nva = CCC[C@H](N)C(=O)O; Abu = CC[C@H](N)C(=O)O; Aib = CC(C)(N)C(=O)O; βAla = NCCC(=O)O A value given as a limit tells only on which side of the number the result lay.

Sequence of hNav1.3 (Q9NY46 whole entry, looked up): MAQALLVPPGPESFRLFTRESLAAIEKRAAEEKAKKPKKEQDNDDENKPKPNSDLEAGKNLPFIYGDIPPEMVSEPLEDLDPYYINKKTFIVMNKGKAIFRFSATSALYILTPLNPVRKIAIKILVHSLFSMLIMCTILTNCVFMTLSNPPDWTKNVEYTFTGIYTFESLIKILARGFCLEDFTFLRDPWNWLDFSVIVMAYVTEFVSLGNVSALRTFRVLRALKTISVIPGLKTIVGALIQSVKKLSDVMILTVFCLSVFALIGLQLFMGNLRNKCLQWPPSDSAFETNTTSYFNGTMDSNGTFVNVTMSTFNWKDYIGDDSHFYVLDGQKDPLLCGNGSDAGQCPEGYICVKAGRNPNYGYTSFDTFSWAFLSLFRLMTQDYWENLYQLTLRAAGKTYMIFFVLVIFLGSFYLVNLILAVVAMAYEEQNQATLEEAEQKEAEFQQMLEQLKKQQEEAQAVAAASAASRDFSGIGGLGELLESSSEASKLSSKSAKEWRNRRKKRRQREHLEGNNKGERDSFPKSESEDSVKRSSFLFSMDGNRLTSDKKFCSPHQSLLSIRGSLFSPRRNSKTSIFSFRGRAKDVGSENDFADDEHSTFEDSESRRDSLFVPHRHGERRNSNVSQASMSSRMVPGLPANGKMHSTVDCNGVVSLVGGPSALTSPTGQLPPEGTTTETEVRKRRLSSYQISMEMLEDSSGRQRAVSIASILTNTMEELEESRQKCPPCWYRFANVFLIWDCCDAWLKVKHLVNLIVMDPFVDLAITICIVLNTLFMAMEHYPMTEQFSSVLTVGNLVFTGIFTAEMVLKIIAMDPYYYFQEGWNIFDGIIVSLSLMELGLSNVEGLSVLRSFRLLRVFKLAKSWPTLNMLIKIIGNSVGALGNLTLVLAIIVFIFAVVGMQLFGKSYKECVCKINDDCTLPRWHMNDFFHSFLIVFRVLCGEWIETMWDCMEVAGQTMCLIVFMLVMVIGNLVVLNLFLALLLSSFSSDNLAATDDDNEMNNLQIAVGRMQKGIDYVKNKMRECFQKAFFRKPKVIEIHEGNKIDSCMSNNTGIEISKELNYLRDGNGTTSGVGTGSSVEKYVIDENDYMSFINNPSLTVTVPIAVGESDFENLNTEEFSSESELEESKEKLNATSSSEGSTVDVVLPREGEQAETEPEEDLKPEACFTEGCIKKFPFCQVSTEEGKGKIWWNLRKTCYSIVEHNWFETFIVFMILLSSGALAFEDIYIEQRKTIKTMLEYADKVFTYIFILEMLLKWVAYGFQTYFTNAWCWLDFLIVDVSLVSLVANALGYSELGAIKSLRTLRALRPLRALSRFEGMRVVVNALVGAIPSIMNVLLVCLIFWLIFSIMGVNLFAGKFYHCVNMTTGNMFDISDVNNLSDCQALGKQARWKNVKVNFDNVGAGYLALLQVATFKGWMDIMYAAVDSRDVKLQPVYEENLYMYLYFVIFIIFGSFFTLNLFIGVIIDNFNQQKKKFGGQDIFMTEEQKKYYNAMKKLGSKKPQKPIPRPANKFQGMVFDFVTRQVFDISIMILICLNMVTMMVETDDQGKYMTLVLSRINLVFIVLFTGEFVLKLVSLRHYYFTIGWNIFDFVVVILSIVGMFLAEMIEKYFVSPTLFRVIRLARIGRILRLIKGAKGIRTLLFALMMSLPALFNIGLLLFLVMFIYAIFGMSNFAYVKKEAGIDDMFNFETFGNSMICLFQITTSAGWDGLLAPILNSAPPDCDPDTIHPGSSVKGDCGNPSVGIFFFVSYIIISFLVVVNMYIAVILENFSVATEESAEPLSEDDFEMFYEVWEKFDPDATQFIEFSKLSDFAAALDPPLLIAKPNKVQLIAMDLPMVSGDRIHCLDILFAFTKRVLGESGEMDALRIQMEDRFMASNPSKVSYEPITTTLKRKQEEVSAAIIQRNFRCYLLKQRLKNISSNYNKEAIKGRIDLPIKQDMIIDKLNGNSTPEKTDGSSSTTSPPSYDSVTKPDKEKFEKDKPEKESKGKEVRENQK
Sequence of hNav1.5 (Q14524 whole entry, looked up): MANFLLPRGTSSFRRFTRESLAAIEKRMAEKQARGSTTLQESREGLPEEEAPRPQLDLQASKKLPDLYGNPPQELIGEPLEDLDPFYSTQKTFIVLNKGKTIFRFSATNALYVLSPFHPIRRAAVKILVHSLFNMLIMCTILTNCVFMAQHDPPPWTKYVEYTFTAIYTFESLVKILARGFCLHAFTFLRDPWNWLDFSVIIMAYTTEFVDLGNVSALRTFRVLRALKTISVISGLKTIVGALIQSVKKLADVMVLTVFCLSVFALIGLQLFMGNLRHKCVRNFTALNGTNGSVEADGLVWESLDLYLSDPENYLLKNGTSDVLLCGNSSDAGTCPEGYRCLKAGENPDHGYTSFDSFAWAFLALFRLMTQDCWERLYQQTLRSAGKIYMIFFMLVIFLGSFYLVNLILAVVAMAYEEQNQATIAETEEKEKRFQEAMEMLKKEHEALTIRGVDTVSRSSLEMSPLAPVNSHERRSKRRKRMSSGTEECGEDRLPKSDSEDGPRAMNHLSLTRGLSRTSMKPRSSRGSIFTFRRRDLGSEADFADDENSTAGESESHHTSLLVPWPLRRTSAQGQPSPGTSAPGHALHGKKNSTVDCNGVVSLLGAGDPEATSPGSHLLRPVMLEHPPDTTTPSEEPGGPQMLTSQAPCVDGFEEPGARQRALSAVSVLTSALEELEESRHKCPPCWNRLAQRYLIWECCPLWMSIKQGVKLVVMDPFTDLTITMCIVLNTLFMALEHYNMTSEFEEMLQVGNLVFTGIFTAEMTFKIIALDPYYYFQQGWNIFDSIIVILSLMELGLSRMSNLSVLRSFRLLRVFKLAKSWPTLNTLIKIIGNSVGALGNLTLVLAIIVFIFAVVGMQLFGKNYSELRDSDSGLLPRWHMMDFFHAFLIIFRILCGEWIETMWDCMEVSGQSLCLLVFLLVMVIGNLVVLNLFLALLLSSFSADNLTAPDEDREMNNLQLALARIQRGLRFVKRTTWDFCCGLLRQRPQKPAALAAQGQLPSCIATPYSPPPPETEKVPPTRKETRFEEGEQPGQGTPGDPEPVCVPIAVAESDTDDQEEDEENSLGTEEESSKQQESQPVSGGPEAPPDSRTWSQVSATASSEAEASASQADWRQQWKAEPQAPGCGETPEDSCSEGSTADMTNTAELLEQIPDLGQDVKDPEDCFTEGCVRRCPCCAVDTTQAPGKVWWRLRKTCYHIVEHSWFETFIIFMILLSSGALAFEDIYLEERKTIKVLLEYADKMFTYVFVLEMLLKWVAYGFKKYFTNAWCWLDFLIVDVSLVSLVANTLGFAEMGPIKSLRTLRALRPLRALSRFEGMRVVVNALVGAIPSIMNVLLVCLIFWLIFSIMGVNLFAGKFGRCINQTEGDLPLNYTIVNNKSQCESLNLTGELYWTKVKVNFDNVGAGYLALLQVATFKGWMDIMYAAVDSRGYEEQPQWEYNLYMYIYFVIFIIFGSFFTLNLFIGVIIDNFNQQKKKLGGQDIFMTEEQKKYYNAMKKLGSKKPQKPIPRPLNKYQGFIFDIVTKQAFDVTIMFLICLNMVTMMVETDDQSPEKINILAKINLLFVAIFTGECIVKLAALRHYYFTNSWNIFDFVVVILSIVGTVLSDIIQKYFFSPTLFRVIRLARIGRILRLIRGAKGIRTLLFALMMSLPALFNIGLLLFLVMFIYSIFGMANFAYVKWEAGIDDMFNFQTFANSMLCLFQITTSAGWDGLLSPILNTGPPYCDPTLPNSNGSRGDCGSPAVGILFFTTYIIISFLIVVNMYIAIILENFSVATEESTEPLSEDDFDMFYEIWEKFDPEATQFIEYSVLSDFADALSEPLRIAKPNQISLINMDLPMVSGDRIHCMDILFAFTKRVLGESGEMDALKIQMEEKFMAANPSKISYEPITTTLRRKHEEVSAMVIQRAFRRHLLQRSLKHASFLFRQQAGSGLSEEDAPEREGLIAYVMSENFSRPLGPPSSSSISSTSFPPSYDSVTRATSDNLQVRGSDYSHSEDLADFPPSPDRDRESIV

Consider `CC[C@H](C)[C@@H]1NC(=O)[C@@H]2CSSC[C@@H]3NC(=O)[C@H](C(C)C)NC(=O)[C@H](CC(C)C)NC(=O)[C@H](CC(N)=O)NC(=O)[C@@H]4CCCN4C(=O)[C@H](CCCNC(=N)N)NC(=O)[C@H](CSSC[C@H](NC(=O)[C@@H](N)CC(=O)O)C(=O)N[C@@H](CC(C)C)C(=O)NCC(=O)N[C@@H](C)C(=O)N[C@@H](CC(C)C)C(=O)N[C@@H](CCCNC(=N)N)C(=O)N[C@@H](CCCCN)C(=O)N2)NC(=O)[C@H](CSSC[C@@H](C(=O)N[C@@H](CCCCN)C(=O)N[C@@H](Cc2ccc(O)cc2)C(=O)N[C@H](C(=O)N[C@@H](Cc2ccccc2)C(=O)O)C(C)C)NC(=O)[C@H](Cc2c[nH]c4ccccc24)NC(=O)CNC(=O)[C@H](Cc2c[nH]cn2)NC(=O)[C@H]([C@@H](C)O)NC(=O)[C@H](CCCNC(=N)N)NC(=O)[C@H](CO)NC3=O)NC(=O)[C@H](CCCCN)NC(=O)[C@H](CC(=O)O)NC(=O)[C@H](CC(N)=O)NC(=O)[C@H](CC(=O)O)NC(=O)[C@@H]2CCCN2C1=O` [compound 598] (H-DCLGALRKCIPDNDKCCRPNLVCSRTHGWCKYVF-OH; disulfide 2-17, 9-23, 16-30), for which the IC50 is more than 5 µM on hNav1.7, 4 µM on hNav1.3 and 12.6 µM at hNav1.5.
For `CC[C@H](C)[C@@H]1NC(=O)[C@@H]2CSSC[C@@H]3NC(=O)[C@H](C(C)C)NC(=O)[C@H](CC(C)C)NC(=O)[C@H](CC(N)=O)NC(=O)[C@@H]4CCCN4C(=O)[C@H](CCCNC(=N)N)NC(=O)[C@H](CSSC[C@H](NC(=O)[C@@H](N)CC(=O)O)C(=O)N[C@@H](CC(C)C)C(=O)NCC(=O)N[C@@H](C)C(=O)N[C@@H](CC(C)C)C(=O)N[C@@H](CCCNC(=N)N)C(=O)N[C@@H](CCCCN)C(=O)N2)NC(=O)[C@H](CSSC[C@@H](C(=O)N[C@@H](CCCCN)C(=O)N[C@@H](Cc2ccc(O)cc2)C(=O)N[C@H](C(=O)N[C@@H](Cc2ccccc2)C(=O)O)C(C)C)NC(=O)[C@H](Cc2c[nH]c4ccccc24)NC(=O)[C@H](Cc2c[nH]cn2)NC(=O)[C@H](Cc2c[nH]cn2)NC(=O)[C@H]([C@@H](C)O)NC(=O)[C@H](CCCNC(=N)N)NC(=O)[C@H](CO)NC3=O)NC(=O)[C@H](CCCCN)NC(=O)[C@H](CC(=O)O)NC(=O)[C@H](CC(N)=O)NC(=O)[C@H](CC(=O)O)NC(=O)[C@@H]2CCCN2C1=O` [compound 599] (H-DCLGALRKCIPDNDKCCRPNLVCSRTHHWCKYVF-OH; disulfide 2-17, 9-23, 16-30), the IC50 was more than 5 µM at hNav1.7, 2.2 µM at hNav1.3 and 12.7 µM on hNav1.5.
For the compound `CC[C@H](C)[C@@H]1NC(=O)[C@@H]2CSSC[C@@H]3NC(=O)[C@H](C(C)C)NC(=O)[C@H](CC(C)C)NC(=O)[C@H](CC(N)=O)NC(=O)[C@@H]4CCCN4C(=O)[C@H](CCCNC(=N)N)NC(=O)[C@H](CSSC[C@H](NC(=O)[C@@H](N)CC(=O)O)C(=O)N[C@@H](CC(C)C)C(=O)NCC(=O)N[C@@H](C)C(=O)N[C@@H](CC(C)C)C(=O)N[C@@H](CCCNC(=N)N)C(=O)N[C@@H](CCCCN)C(=O)N2)NC(=O)[C@H](CSSC[C@@H](C(=O)N[C@@H](CCCCN)C(=O)N[C@@H](Cc2ccc(O)cc2)C(=O)N[C@H](C(=O)N[C@@H](Cc2ccccc2)C(=O)O)C(C)C)NC(=O)[C@H](Cc2c[nH]c4ccccc24)NC(=O)[C@H](CCCCN)NC(=O)[C@H](Cc2c[nH]cn2)NC(=O)[C@H]([C@@H](C)O)NC(=O)[C@H](CCCNC(=N)N)NC(=O)[C@H](CO)NC3=O)NC(=O)[C@H](CCCCN)NC(=O)[C@H](CC(=O)O)NC(=O)[C@H](CC(N)=O)NC(=O)[C@H](CC(=O)O)NC(=O)[C@@H]2CCCN2C1=O` [compound 600] (H-DCLGALRKCIPDNDKCCRPNLVCSRTHKWCKYVF-OH; disulfide 2-17, 9-23, 16-30), the IC50 on hNav1.7 is more than 5 µM; on hNav1.3, 3.1 µM; on hNav1.5, 12.6 µM.
Turning to `CC[C@H](C)[C@@H]1NC(=O)[C@@H]2CSSC[C@@H]3NC(=O)[C@H](C(C)C)NC(=O)[C@H](CC(C)C)NC(=O)[C@H](CC(N)=O)NC(=O)[C@@H]4CCCN4C(=O)[C@H](CCCNC(=N)N)NC(=O)[C@H](CSSC[C@H](NC(=O)[C@@H](N)CC(=O)O)C(=O)N[C@@H](CC(C)C)C(=O)NCC(=O)N[C@@H](C)C(=O)N[C@@H](CC(C)C)C(=O)N[C@@H](CCCNC(=N)N)C(=O)N[C@@H](CCCCN)C(=O)N2)NC(=O)[C@H](CSSC[C@@H](C(=O)N[C@@H](CCCCN)C(=O)N[C@@H](Cc2ccc(O)cc2)C(=O)N[C@H](C(=O)N[C@@H](Cc2ccccc2)C(=O)O)C(C)C)NC(=O)[C@H](Cc2c[nH]c4ccccc24)NC(=O)[C@H](CC(N)=O)NC(=O)[C@H](Cc2c[nH]cn2)NC(=O)[C@H]([C@@H](C)O)NC(=O)[C@H](CCCNC(=N)N)NC(=O)[C@H](CO)NC3=O)NC(=O)[C@H](CCCCN)NC(=O)[C@H](CC(=O)O)NC(=O)[C@H](CC(N)=O)NC(=O)[C@H](CC(=O)O)NC(=O)[C@@H]2CCCN2C1=O` [compound 601] (H-DCLGALRKCIPDNDKCCRPNLVCSRTHNWCKYVF-OH; disulfide 2-17, 9-23, 16-30), the IC50 is more than 5 µM on hNav1.7, 2.6 µM at hNav1.3 and 10 µM at hNav1.5.
Turning to `CC[C@H](C)[C@@H]1NC(=O)[C@@H]2CSSC[C@@H]3NC(=O)[C@H](C(C)C)NC(=O)[C@H](CC(C)C)NC(=O)[C@H](CC(N)=O)NC(=O)[C@@H]4CCCN4C(=O)[C@H](CCCNC(=N)N)NC(=O)[C@H](CSSC[C@H](NC(=O)[C@@H](N)CC(=O)O)C(=O)N[C@@H](CC(C)C)C(=O)NCC(=O)NCCC(=O)N[C@@H](Cc4ccccc4)C(=O)N[C@@H](CCCNC(=N)N)C(=O)N[C@@H](CCCCN)C(=O)N2)NC(=O)[C@H](CSSC[C@@H](C(=O)N[C@@H](CCCCN)C(=O)N[C@@H](Cc2ccc(O)cc2)C(=O)N[C@H](C(=O)N[C@@H](Cc2ccccc2)C(N)=O)C(C)C)NC(=O)[C@H](Cc2c[nH]c4ccccc24)NC(=O)[C@H](CCCCN)NC(=O)[C@H](Cc2c[nH]cn2)NC(=O)[C@H]([C@@H](C)O)NC(=O)[C@H](CCCNC(=N)N)NC(=O)[C@H](CO)NC3=O)NC(=O)[C@H](CCCCN)NC(=O)[C@H](CC(=O)O)NC(=O)[C@H](CC(N)=O)NC(=O)[C@H](CC(=O)O)NC(=O)[C@@H]2CCCN2C1=O` [compound 603] (H-DCLG[βAla]FRKCIPDNDKCCRPNLVCSRTHKWCKYVF-NH2; disulfide 2-17, 9-23, 16-30), the results for the IC50 at hNav1.7, at hNav1.3 and at hNav1.5 were 15.3 µM, 11.8 µM and 9.5 µM, respectively.
`CC[C@H](C)[C@@H]1NC(=O)[C@@H]2CSSC[C@@H]3NC(=O)[C@H](C(C)C)NC(=O)[C@H](CC(C)C)NC(=O)[C@H](CC(N)=O)NC(=O)[C@@H]4CCCN4C(=O)[C@H](CCCNC(=N)N)NC(=O)[C@H](CSSC[C@H](NC(=O)[C@@H](N)CC(=O)O)C(=O)N[C@@H](CC(C)C)C(=O)NCC(=O)NC(C)(C)C(=O)N[C@@H](Cc4ccccc4)C(=O)N[C@@H](CCCNC(=N)N)C(=O)N[C@@H](CCCCN)C(=O)N2)NC(=O)[C@H](CSSC[C@@H](C(=O)N[C@@H](CCCCN)C(=O)N[C@@H](Cc2ccc(O)cc2)C(=O)N[C@H](C(=O)N[C@@H](Cc2ccccc2)C(N)=O)C(C)C)NC(=O)[C@H](Cc2c[nH]c4ccccc24)NC(=O)[C@H](CCCCN)NC(=O)[C@H](Cc2c[nH]cn2)NC(=O)[C@H]([C@@H](C)O)NC(=O)[C@H](CCCNC(=N)N)NC(=O)[C@H](CO)NC3=O)NC(=O)[C@H](CCCCN)NC(=O)[C@H](CC(=O)O)NC(=O)[C@H](CC(N)=O)NC(=O)[C@H](CC(=O)O)NC(=O)[C@@H]2CCCN2C1=O` [compound 604] (H-DCLG[Aib]FRKCIPDNDKCCRPNLVCSRTHKWCKYVF-NH2; disulfide 2-17, 9-23, 16-30): the IC50 at hNav1.7 was found to be 0.44 µM; at hNav1.3, 0.61 µM; on hNav1.5, 6.4 µM.
Turning to `CC[C@@H]1NC(=O)CNC(=O)[C@H](CC(C)C)NC(=O)[C@@H](NC(=O)[C@@H](N)CC(=O)O)CSSC[C@@H]2NC(=O)[C@@H]3CSSC[C@@H](C(=O)N[C@@H](CCCCN)C(=O)N[C@@H](Cc4ccc(O)cc4)C(=O)N[C@H](C(=O)N[C@@H](Cc4ccccc4)C(N)=O)C(C)C)NC(=O)[C@H](Cc4c[nH]c5ccccc45)NC(=O)[C@H](CCCCN)NC(=O)[C@H](Cc4c[nH]cn4)NC(=O)[C@H]([C@@H](C)O)NC(=O)[C@H](CCCNC(=N)N)NC(=O)[C@H](CO)NC(=O)[C@H](CSSC[C@H](NC(=O)[C@H](CCCCN)NC(=O)[C@H](CCCNC(=N)N)NC(=O)[C@H](Cc4ccccc4)NC1=O)C(=O)N[C@@H]([C@@H](C)CC)C(=O)N1CCC[C@H]1C(=O)N[C@@H](CC(=O)O)C(=O)N[C@@H](CC(N)=O)C(=O)N[C@@H](CC(=O)O)C(=O)N[C@@H](CCCCN)C(=O)N3)NC(=O)[C@H](C(C)C)NC(=O)[C@H](CC(C)C)NC(=O)[C@H](CC(N)=O)NC(=O)[C@@H]1CCCN1C(=O)[C@H](CCCNC(=N)N)NC2=O` [compound 605] (H-DCLG[Abu]FRKCIPDNDKCCRPNLVCSRTHKWCKYVF-NH2; disulfide 2-17, 9-23, 16-30), the IC50 at hNav1.7 came out at 0.17 µM; on hNav1.3 it was 0.36 µM; at hNav1.5 it was 9.5 µM.
For `CCC[C@@H]1NC(=O)CNC(=O)[C@H](CC(C)C)NC(=O)[C@@H](NC(=O)[C@@H](N)CC(=O)O)CSSC[C@@H]2NC(=O)[C@@H]3CSSC[C@@H](C(=O)N[C@@H](CCCCN)C(=O)N[C@@H](Cc4ccc(O)cc4)C(=O)N[C@H](C(=O)N[C@@H](Cc4ccccc4)C(N)=O)C(C)C)NC(=O)[C@H](Cc4c[nH]c5ccccc45)NC(=O)[C@H](CCCCN)NC(=O)[C@H](Cc4c[nH]cn4)NC(=O)[C@H]([C@@H](C)O)NC(=O)[C@H](CCCNC(=N)N)NC(=O)[C@H](CO)NC(=O)[C@H](CSSC[C@H](NC(=O)[C@H](CCCCN)NC(=O)[C@H](CCCNC(=N)N)NC(=O)[C@H](Cc4ccccc4)NC1=O)C(=O)N[C@@H]([C@@H](C)CC)C(=O)N1CCC[C@H]1C(=O)N[C@@H](CC(=O)O)C(=O)N[C@@H](CC(N)=O)C(=O)N[C@@H](CC(=O)O)C(=O)N[C@@H](CCCCN)C(=O)N3)NC(=O)[C@H](C(C)C)NC(=O)[C@H](CC(C)C)NC(=O)[C@H](CC(N)=O)NC(=O)[C@@H]1CCCN1C(=O)[C@H](CCCNC(=N)N)NC2=O` [compound 606] (H-DCLG[Nva]FRKCIPDNDKCCRPNLVCSRTHKWCKYVF-NH2; disulfide 2-17, 9-23, 16-30) the same measures were 0.084 µM, 0.17 µM and 7.8 µM.
